Results taken from publication PMC8795738, “The Tarantula Venom Peptide Eo1a Binds to the Domain II S3-S4 Extracellular Loop of Voltage-Gated Sodium Channel NaV1.8 to Enhance Activation” (Frontiers in Pharmacology, 2022).
Where a SMILES comes first, the peptide text is derived from it. Bridges are numbered along the chain shown (N, C = ends).

Experiments:
Conditions in all cases: Eo1a 10 μM
[1] = system: NaV1.4; test: I-V protocol, whole-cell patch-clamp, NaV1.4; type: cell-based, human
Experimental: (§1) Human Embryonic Kidney (HEK) 293 cells stably expressing human NaV1.1 to NaV1.7/β1 (SB Drug Discovery, Glasgow, United Kingdom), Chinese Hamster Ovary (CHO) cells stably expressing human NaV1.8/β3 in a tetracycline-inducible system (ChanTest, Cleveland, OH, United States), and HEK293 cells stably expressing rat transient receptor potential vanilloid 1 (TRPV1) were cultured as previously described ([Yin et al., 2020]). Human KV2.1 and NaV1.7 mutants were transiently transfected into HEK293 cells stably expressing β1/β2 using Lipofectamine 2000 (Thermo Fisher Scientific, Scoresby, VIC, Australia) and used for patch-clamp experiments 48 h after transfection. Cells were grown in an incubator at 37°C with 5% CO2 and passaged every 3–4 d (at 70–80% confluency) using TrypLE Express (Thermo Fisher Scientific).
(§2) Automated whole-cell patch-clamp recordings were performed with a QPatch-16 automated electrophysiology platform (Sophion Bioscience, Ballerup, Denmark) using single-hole (QPlate 16 with a standard resistance of 2 ± 0.4 MΩ) or multi-hole (QPlate 16X with a standard resistance 0.2 ± 0.04 MΩ, NaV1.8 only) as previously described ([McMahon et al., 2020]).
(§3) The extracellular solution (ECS) consisted of (in mM) 145 NaCl (replaced with 70 choline chloride for NaV1.4, NaV1.5 and NaV1.7), 4 KCl, 2 CaCl2, 1 MgCl2, 10 HEPES, and 10 glucose, pH to 7.4 with NaOH (adjusted to 305 mOsm/L with sucrose). For NaV recordings the intracellular solution (ICS) consisted of (in mM) 140 CsF, 1 EGTA, 5 CsOH, 10 HEPES, and 10 NaCl, pH to 7.3 with CsOH (adjusted to 320 mOsm/L with sucrose). For KV2.1 recordings the ICS consisted of (in mM) 50 KCl, 60 KF, 10 EGTA, 10 HEPES, 10 NaCl pH to 7.3 with KOH (adjusted to 320 mOsm/L with sucrose). TTX (1 μM) was added to the ECS for NaV1.8 recordings to inhibit background endogenous TTX sensitive current in CHO cells.
(§4) I-V curves were obtained with a holding potential of −90 mV followed by a series of 500 ms step pulses that ranged from −110 to +80 mV in 5-mV increments (repetition interval 5 s) before and after 5 min incubation with Eo1a (10 μM). Conductance-voltage (G-V) curves were obtained by calculating the conductance (G) at each voltage (V) using equation G = I/(V − V rev ), where V rev is the reversal potential. G-V curves were fitted with a Boltzmann equation. […]
(§5) The time constant of fast inactivation (τ) was computed by fitting the current decay traces with a single exponential function using QPatch Assay Software 5.6 (Sophion). The time to peak was calculated from pulse onset to peak inward current using QPatch Assay Software 5.6 (Sophion).

[2] = biological target: NaV1.8 (Homo sapiens, UniProt Q9Y5Y9); test: I-V protocol, whole-cell patch-clamp, NaV1.8; type: cell-based
Sequence of NaV1.8 (Q9Y5Y9 whole entry): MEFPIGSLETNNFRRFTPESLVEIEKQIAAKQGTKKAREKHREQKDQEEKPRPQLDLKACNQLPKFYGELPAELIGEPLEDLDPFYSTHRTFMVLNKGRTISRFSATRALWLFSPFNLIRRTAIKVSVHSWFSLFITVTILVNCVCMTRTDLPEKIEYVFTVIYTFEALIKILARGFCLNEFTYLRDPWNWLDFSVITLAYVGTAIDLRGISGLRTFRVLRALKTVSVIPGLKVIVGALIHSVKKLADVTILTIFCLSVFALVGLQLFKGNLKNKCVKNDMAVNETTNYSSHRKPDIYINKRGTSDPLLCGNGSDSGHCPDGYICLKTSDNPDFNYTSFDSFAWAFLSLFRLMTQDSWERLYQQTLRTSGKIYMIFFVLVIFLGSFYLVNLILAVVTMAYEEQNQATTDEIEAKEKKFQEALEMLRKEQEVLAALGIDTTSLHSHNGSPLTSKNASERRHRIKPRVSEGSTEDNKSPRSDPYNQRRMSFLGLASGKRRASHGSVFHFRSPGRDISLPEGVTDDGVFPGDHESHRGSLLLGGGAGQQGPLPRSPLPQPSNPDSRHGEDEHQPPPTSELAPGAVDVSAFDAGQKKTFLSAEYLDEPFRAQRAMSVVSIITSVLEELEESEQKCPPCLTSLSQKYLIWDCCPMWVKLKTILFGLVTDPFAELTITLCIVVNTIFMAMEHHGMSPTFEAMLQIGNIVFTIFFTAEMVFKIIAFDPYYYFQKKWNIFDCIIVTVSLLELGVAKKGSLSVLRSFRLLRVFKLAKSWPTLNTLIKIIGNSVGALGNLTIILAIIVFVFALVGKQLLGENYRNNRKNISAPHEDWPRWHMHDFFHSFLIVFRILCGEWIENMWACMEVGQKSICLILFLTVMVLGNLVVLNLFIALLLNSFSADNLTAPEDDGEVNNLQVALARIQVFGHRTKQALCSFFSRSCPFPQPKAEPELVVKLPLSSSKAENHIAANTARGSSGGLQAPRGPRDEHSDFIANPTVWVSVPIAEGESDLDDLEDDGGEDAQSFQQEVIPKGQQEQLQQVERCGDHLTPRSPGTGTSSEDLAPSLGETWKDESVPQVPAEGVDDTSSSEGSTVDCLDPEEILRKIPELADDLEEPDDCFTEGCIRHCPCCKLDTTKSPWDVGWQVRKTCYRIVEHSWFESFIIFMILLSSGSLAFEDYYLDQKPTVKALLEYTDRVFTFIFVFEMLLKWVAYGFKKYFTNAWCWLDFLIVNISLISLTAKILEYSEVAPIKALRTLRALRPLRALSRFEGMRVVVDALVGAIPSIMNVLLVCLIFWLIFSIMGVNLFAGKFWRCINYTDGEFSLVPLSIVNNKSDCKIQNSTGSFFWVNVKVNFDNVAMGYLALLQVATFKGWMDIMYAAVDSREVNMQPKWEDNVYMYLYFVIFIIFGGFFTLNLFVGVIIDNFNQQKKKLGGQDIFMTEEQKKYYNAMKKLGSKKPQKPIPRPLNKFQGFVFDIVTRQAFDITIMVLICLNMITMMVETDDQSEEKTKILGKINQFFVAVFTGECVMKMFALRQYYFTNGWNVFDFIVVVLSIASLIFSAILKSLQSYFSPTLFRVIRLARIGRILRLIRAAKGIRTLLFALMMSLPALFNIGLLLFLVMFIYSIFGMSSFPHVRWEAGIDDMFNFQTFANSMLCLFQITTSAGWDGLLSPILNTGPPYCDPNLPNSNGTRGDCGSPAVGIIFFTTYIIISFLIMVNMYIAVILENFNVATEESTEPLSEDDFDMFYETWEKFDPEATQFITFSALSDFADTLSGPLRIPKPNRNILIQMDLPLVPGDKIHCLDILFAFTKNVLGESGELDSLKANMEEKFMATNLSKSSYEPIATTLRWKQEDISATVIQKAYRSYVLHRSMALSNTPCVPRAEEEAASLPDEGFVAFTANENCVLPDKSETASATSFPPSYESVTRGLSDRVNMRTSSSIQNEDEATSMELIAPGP
Experimental: as §1, §2, §3
I-V curves were obtained with a holding potential of −90 mV followed by a series of 500 ms step pulses that ranged from −110 to +80 mV in 5-mV increments (repetition interval 5 s) before and after 5 min incubation with Eo1a (10 μM). Conductance-voltage (G-V) curves were obtained by calculating the conductance (G) at each voltage (V) using equation G = I/(V − V rev ), where V rev is the reversal potential. G-V curves were fitted with a Boltzmann equation. The voltage dependence of steady-state fast inactivation was examined using a 10-ms pulse of −20 mV (+10 mV for NaV1.8) immediately after the 500-ms step above to assess the available non-inactivated channels.
as §5

[3] = system: NaV1.7; test: I-V protocol, whole-cell patch-clamp, NaV1.7; type: cell-based, human
Experimental: as §1, §2, §3, §4, §5

## CC[C@H](C)[C@@H]1NC(=O)[C@H](CCCNC(=N)N)NC(=O)[C@@H]2CSSC[C@@H]3NC(=O)CNC(=O)CNC(=O)[C@H](CC(C)C)NC(=O)[C@H](Cc4ccccc4)NC(=O)[C@H](Cc4c[nH]c5ccccc45)NC(=O)[C@H](CCCNC(=N)N)NC(=O)[C@@H](NC(=O)[C@@H](N)CC(=O)O)CSSC[C@H](NC(=O)[C@H](CSSC[C@@H](C(=O)N[C@@H](C)C(=O)N[C@@H](Cc4c[nH]c5ccccc45)C(=O)N[C@@H](CC(=O)O)C(=O)NCC(=O)N[C@H](C(=O)N[C@@H](Cc4ccccc4)C(N)=O)[C@@H](C)O)NC(=O)[C@H](Cc4ccc(O)cc4)NC(=O)[C@H](CCCCN)NC(=O)[C@H]([C@@H](C)CC)NC(=O)[C@H](Cc4ccc(O)cc4)NC(=O)CNC(=O)[C@H](CC(=O)O)NC1=O)NC(=O)[C@H](CC(=O)O)NC(=O)[C@H](CO)NC(=O)[C@H](CC(=O)O)NC(=O)[C@H](CCCCN)NC(=O)[C@H](CO)NC3=O)C(=O)N[C@@H](CCCCN)C(=O)N[C@@H](Cc1c[nH]cn1)C(=O)N[C@@H](CC(C)C)C(=O)N[C@@H](C)C(=O)N2 [Eo1a] (H-DCRWFLGGCSKDSDCCKHLACRIDGYIKYCAWDGTF-NH2; disulfide 2-16, 9-21, 15-30 (inferred); N-terminus assumed)
[1]; 5 min, peak from I-V protocol at any voltage, normalised to buffer control, HEK293 hNaV1.4/β1, mean ± SEM, n = 4–6 cells
  peak current I/I0: 0.68 ± 0.04
[1]; NaV1.4, 5 min, control −27.6 ± 1.4 mV, mean ± SEM, n = 4–6
  V1/2 activation: −28.8 ± 1.2 mV
[1]; NaV1.4, 5 min, control −65.8 ± 1.3 mV, mean ± SEM, n = 4–6
  V1/2 inactivation (steady-state fast inactivation): −67.6 ± 1.2
[1]; NaV1.4, test pulse −20 mV
  effect on inactivation kinetics: minimal effect
[2]; 5 min, CHO cells, hNaV1.8/β3, 10-ms pulse to +10 mV after 500-ms step, hyperpolarising shift, mean ± SEM, n = 4 cells
  ΔV50 voltage-dependence of steady-state fast inactivation: –15.5 ± 1.8 mV
[2]; 5 min, CHO cells, hNaV1.8/β3, Boltzmann fit, hyperpolarising shift vs before addition, mean ± SEM, n = 4 cells
  ΔV50 voltage-dependence of activation: –20.5 ± 1.2 mV
[2]; 5 min, peak from I-V protocol at any voltage, normalised to buffer control, CHO hNaV1.8/β3, mean ± SEM, n = 4–6 cells
  peak current I/I0: 1.8 ± 0.08
[2]; NaV1.8, n = 4 cells
  window current: comparatively unchanged
[2]; NaV1.8, potentials between −5 mV and +45 mV, n = 4 cells, two-way ANOVA
  activation kinetics (time to peak): without significantly altering
[2]; NaV1.8, single exponential fit, −5 mV to +45 mV, n = 4 cells, two-way ANOVA
  fast inactivation kinetics (time constant): without significantly altering
[2]; NaV1.8, 5 min, control +7.0 ± 1.8 mV, *p < 0.05, mean ± SEM, n = 4–6
  V1/2 activation: −13.5 mV
[2]; NaV1.8, 5 min, control −27.4 ± 2.7 mV, *p < 0.05, mean ± SEM, n = 4–6
  V1/2 inactivation (steady-state fast inactivation): −42.9 ± 2.1*
[3]; 5 min, peak from I-V protocol at any voltage, normalised to buffer control, HEK293 hNaV1.7/β1, mean ± SEM, n = 4–6 cells
  peak current I/I0: 0.63 ± 0.10
[3]; NaV1.7, 5 min, control −26.1 ± 1.5 mV, mean ± SEM, n = 4–6
  V1/2 activation: −32.9 ± 2.9 mV
[3]; NaV1.7, 5 min, control −65.5 ± 1.4 mV, mean ± SEM, n = 4–6
  V1/2 inactivation (steady-state fast inactivation): −69.1 ± 4.3
[3]; NaV1.7, test pulse −20 mV
  effect on fast inactivation: delayed fast-inactivation
